Laboratory results from the NIST ThermoML archive (doi:10.1016/j.fluid.2006.10.027).
± gives the expanded uncertainty stated by the source.

Assay: xn = mol fraction of the nth substance listed
Conditions: 101 kPa, Liquid, Capillary tube (Ostwald / Ubbelohde) method, x1 = 0.38

Work on `CC(C)C(=O)O` [2-methylpropanoic acid] + O yielded a viscosity (300.25 K) of 2.21 ± 0.02 mPa·s, a viscosity (300.33 K) of 2.205 ± 0.02 mPa·s and a viscosity (300.36 K) of 2.204 ± 0.02 mPa·s. For the same compound, the viscosity (300.49 K) was 2.197 ± 0.02 mPa·s, the viscosity (300.61 K) was 2.19 ± 0.02 mPa·s and the viscosity (300.66 K) was 2.187 ± 0.02 mPa·s. The viscosity (300.76 K) was 2.182 ± 0.02 mPa·s, the viscosity (300.87 K) was 2.176 ± 0.038 mPa·s and the viscosity (300.96 K) was 2.171 ± 0.038 mPa·s. The viscosity (301.09 K) was 2.164 ± 0.039 mPa·s, the viscosity (301.16 K) was 2.16 ± 0.039 mPa·s and the viscosity (301.26 K) was 2.154 ± 0.038 mPa·s. It also gave a viscosity (301.36 K) of 2.149 ± 0.038 mPa·s, a viscosity (301.49 K) of 2.142 ± 0.038 mPa·s and a viscosity (301.56 K) of 2.138 ± 0.038 mPa·s. For the same compound, the viscosity (301.85 K) was 2.122 ± 0.038 mPa·s, the viscosity (302.16 K) was 2.105 ± 0.019 mPa·s and the viscosity (302.46 K) was 2.088 ± 0.038 mPa·s.
